Patent publication US7648996B2 (Biotica Technology Limited, priority 2005, dated 2010)
Marks after values point to notes of the source that are not given here.

Columns and labels:
[1] = tested on: MDA468; experiment: Monolayer proliferation assay (modified propidium iodide); format: cell-based, human; details: mean of duplicate experiments
Procedure: (§1) In vitro evaluation of compounds for anticancer activity in a panel of 12 human tumour cell lines in a monolayer proliferation assay was carried out at the Oncotest Testing Facility, Institute for Experimental Oncology, Oncotest GmbH, Freiburg.
(§2) The Oncotest cell lines were established from human tumor xenografts as described by Roth et al. 1999. The origin of the donor xenografts was described by Fiebig et al. 1999. Other cell lines were either obtained from the NCI (H460, SF-268, OVCAR-3, DU145, MDA-MB-231, MDA-MB-468) or purchased from DSMZ, Braunschweig, Germany (LNCAP).
(§3) All cell lines, unless otherwise specified, are grown at 37° C. in a humidified atmosphere (95% air, 5% CO2) in a ‘ready-mix’ medium containing RPMI 1640 medium, 10% fetal calf serum, and 0.1 mg/mL gentamicin (PAA, Cölbe, Germany).
(§4) A modified propidium iodide assay was used to assess the effects of the test compound(s) on the growth of twelve human tumor cell lines (Dengler et al., (1995)).
(§5) Briefly, cells were harvested from exponential phase cultures by trypsinization, counted and plated in 96 well flat-bottomed microtitre plates at a cell density dependent on the cell line (5-10,000 viable cells/well). After 24 h recovery to allow the cells to resume exponential growth, 0.01 mL of culture medium (6 control wells per plate) or culture medium containing macbecin are added to the wells. Each concentration is plated in triplicate. […] Following 4 days of continuous exposure, cell culture medium with or without test compound is replaced by 0.2 mL of an aqueous propidium iodide (PI) solution (7 mg/L). To measure the proportion of living cells, cells are permeabilized by freezing the plates. After thawing the plates, fluorescence is measured using the Cytofluor 4000 microplate reader (excitation 530 nm, emission 620 nm), giving a direct relationship to the total number of viable cells.
(§6) Growth inhibition is expressed as treated/control×100 (% T/C). For active compounds, IC50 & IC70 values were estimated by plotting compound concentration versus cell viability.

[2] = tested on: 251L; experiment: as above; format: cell-based, human; details: mean of duplicate experiments
Procedure: as §1, §2, §3, §4, §5, §6

[3] = tested on: LNCAP; experiment: as above; format: cell-based, human; details: mean of duplicate experiments
Procedure: as §1, §2, §3, §4, §5, §6

[4] = tested on: OVCAR3; experiment: as above; format: cell-based, human; details: mean of duplicate experiments
Procedure: as §1, §2, §3, §4, §5, §6

[5] = tested on: 1138L; experiment: as above; format: cell-based, human; details: mean of duplicate experiments
Procedure: as §1, §2, §3, §4, §5, §6

[6] = tested on: 394NL; experiment: as above; format: cell-based, human; details: mean of duplicate experiments
Procedure: as §1, §2, §3, §4, §5, §6

[7] = tested on: DU145; experiment: as above; format: cell-based, human; details: mean of duplicate experiments
Procedure: as §1, §2, §3, §4, §5, §6

[8] = tested on: MCF7; experiment: as above; format: cell-based, human; details: mean of duplicate experiments
Procedure: as §1, §2, §3, §4, §5, §6

[9] = tested on: MDA231; experiment: as above; format: cell-based, human; details: mean of duplicate experiments
Procedure: as §1, §2, §3, §4, §5, §6

[10] = tested on: SF268; experiment: as above; format: cell-based, human; details: mean of duplicate experiments
Procedure: as §1, §2, §3, §4, §5, §6

[11] = tested on: A498; experiment: as above; format: cell-based, human; details: mean of duplicate experiments
Procedure: as §1, §2, §3, §4, §5, §6

[12] = tested on: H460; experiment: as above; format: cell-based, human; details: mean of duplicate experiments
Procedure: as §1, §2, §3, §4, §5, §6

[13] = tested on: panel of 12 human tumour cell lines; experiment: Monolayer proliferation assay, mean across the cell lines tested; format: cell-based; details: for IC50: Homo sapiens
Procedure: as §1, §2, §3, §4, §5, §6

[14] = target: FKBP12 (Homo sapiens, UniProt P62942); experiment: FKBP-12 in vitro binding assay (GdnHCl denaturation curve shift)
Chain of FKBP12 (P62942 whole entry): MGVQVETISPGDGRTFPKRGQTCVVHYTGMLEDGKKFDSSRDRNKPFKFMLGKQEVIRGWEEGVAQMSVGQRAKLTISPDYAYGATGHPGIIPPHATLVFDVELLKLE
Text: FKBP12 reversibly unfolds in the chemical denaturant guandinium hydrochloride (GdnHCl) and the unfolding can be monitored by the change in the intrinsic fluorescence of the protein (Main et al, 1998). Ligands which specifically bind and stabilise the native state of FKBP12 shift the denaturation curve such that the protein unfolds at higher concentrations of chemical denaturant (Main et al, 1999). From the difference in stability, the ligand-binding constant can be determined using equation 1.
[formula] where ΔGapp is the apparent difference in free energy of unfolding between free and ligand-bound forms, ΔGD-N^H^2^O is the free energy of unfolding in water of free protein, [L] the concentration of ligand and Kd the dissociation constant for the protein-ligand complex (Meiering et al, 1992). The free energy of unfolding can be related to the midpoint of the unfolding transition using the following equation: ΔGD-N^H^2^O=mD-N[D]50% (2) where mD-N is a constant for a given protein and given denaturant and which is proportional to the change in degree of exposure of residues on unfolding (Tanford 1968 and Tanford 1970), and [D]50% is the concentration of denaturant corresponding to the midpoint of unfolding. […] Under conditions where [L]>Kd, then, ΔΔGD-N, can be related to the relative Kds of the two compounds through equation 4: […]

[15] = mean across the 12 cell lines tested
[16] = mean based on the 9 cell lines for which data was available

Row | Compound | Cell Growth (Test/Control (%) at drug concentration) ([1]; MDA468, 1 μM) | Cell Growth (Test/Control (%) at drug concentration) ([1]; MDA468, 10 μM) | Cell Growth (Test/Control (%) at drug concentration) ([2]; 1 μM) | Cell Growth (Test/Control (%) at drug concentration) ([2]; 10 μM) | Cell Growth (Test/Control (%) at drug concentration) ([3]; 1 μM) | Cell Growth (Test/Control (%) at drug concentration) ([3]; 10 μM) | Cell Growth (Test/Control (%) at drug concentration) ([4]; OVCAR3, 1 μM) | Cell Growth (Test/Control (%) at drug concentration) ([4]; OVCAR3, 10 μM) | Cell Growth (Test/Control (%) at drug concentration) ([5]; 1 μM) | Cell Growth (Test/Control (%) at drug concentration) ([5]; 10 μM) | Cell Growth (Test/Control (%) at drug concentration) ([6]; 1 μM) | Cell Growth (Test/Control (%) at drug concentration) ([6]; 10 μM) | Cell Growth (Test/Control (%) at drug concentration) ([7]; DU145, 1 μM) | Cell Growth (Test/Control (%) at drug concentration) ([7]; DU145, 10 μM) | Cell Growth (Test/Control (%) at drug concentration) ([8]; MCF7, 1 μM) | Cell Growth (Test/Control (%) at drug concentration) ([8]; MCF7, 10 μM) | Cell Growth (Test/Control (%) at drug concentration) ([10]; SF268, 1 μM) | Cell Growth (Test/Control (%) at drug concentration) ([10]; SF268, 10 μM) | Cell Growth (Test/Control (%) at drug concentration) ([12]; H460, 1 μM) | Cell Growth (Test/Control (%) at drug concentration) ([12]; H460, 10 μM) | other results
1 | CO[C@H]1C[C@@H]2CC[C@@H](C)[C@@](O)(O2)C(=O)C(=O)N2CCCC[C@H]2C(=O)O[C@H]([C@H](C)C[C@@H]2CC[C@@H](O)[C@H](OC)C2)CC(=O)[C@H](C)/C=C(\C)[C@@H](O)[C@@H](OC)C(=O)[C@H](C)C[C@H](C)/C=C/C=C/C=C/1C [Rapamycin, reference compound] | 56.5% | 32% | 75.5% | 40% | 61% | 34% | 69% | 69.5% | 42% | 21.5% | 45% | 44% | 50.5% | 54% | 68.5% | 26.5% | 53.5% | 46% | 67% | 66% | Cell Growth (Test/Control (%) at drug concentration) ([9]; MDA231, 1 μM): 67%; Cell Growth (Test/Control (%) at drug concentration) ([9]; MDA231, 10 μM): 63.5%; Cell Growth (Test/Control (%) at drug concentration) ([11]; A498, 1 μM): 58.5%; Cell Growth (Test/Control (%) at drug concentration) ([11]; A498, 10 μM): 48.5%; IC50 [13, 15]: 3500 nM; Mean IC70 [13, 15]: 9.1 µM
2 | COC1CC2CCC(C)C(O)(O2)C(=O)C(=O)N2CCCCC2C(=O)OC(C(C)CC2CCC(OCCO)CC2)CC(=O)C(C)C=C(C)C(O)C(OC)C(=O)C(C)CC(C)C=CC=CC=C1C (centres unmarked) [39-desmethoxy-40-O-(2-hydroxy)ethyl rapamycin] |  |  | 90% | 31% | 49% | 18% | 85% | 9% | 59% | 4% | 55% | 6% | 56% | 7% | 77% | 10% | 63% | 7% | 76% | 25% | IC50 [13, 16]: 2200 nM; Mean IC70 [13, 16]: 5.513* microM; Kd [14]: 3.7 nM
3 | COC1CC2CCC(C)C(O)(O2)C(=O)C(=O)N2CCCCC2C(=O)OC(C(C)CC2CCC(OC(=O)C(C)(CO)CO)CC2)CC(=O)C(C)C=C(C)C(O)C(OC)C(=O)C(C)CC(C)C=CC=CC=C1C (centres unmarked) [39-desmethoxy-40-O-[2,2-bis(hydroxymethyl)propionyl]rapamycin] | 66% | 9% | 85.5% | 13% | 48.5% | 20.5% | 73.5% | 39% | 50% | 7.5% | 46% | 13% | 62.5% | 13.5% | 67% | 9% | 62.5% | 12% | 66% | 12% | Cell Growth (Test/Control (%) at drug concentration) ([9]; MDA231, 1 μM): 70.5%; Cell Growth (Test/Control (%) at drug concentration) ([9]; MDA231, 10 μM): 13.5%; Cell Growth (Test/Control (%) at drug concentration) ([11]; A498, 1 μM): 66%; Cell Growth (Test/Control (%) at drug concentration) ([11]; A498, 10 μM): 19.5%; IC50 [13, 15]: 2000 nM; Mean IC70 [13, 15]: 4.5 µM; Kd [14]: 1.1 nM
